Values quoted from earlier work as cited in patent US6054456A, “Substituted piperazine derivatives” (Merck Sharp & Dohme Ltd., priority 1995, dated 2000).

Assays:
[1] = test system: human 5-HT1Dα and 5-HT1Dβ receptor subtypes; settings: cf. WO-A-91/171174, Table 1
[2] = humans, therapeutic doses

CNS(=O)(=O)Cc1ccc2[nH]cc(CCN(C)C)c2c1 [sumatriptan]
discrimination between the human 5-HT1Dα and 5-HT1Dβ receptor subtypes [1]: barely discriminates between the human 5-HT1Dα and 5-HT1Dβ receptor subtypes | adverse events [2]: certain adverse cardiovascular events
